This passage reports IC50 results from BindingDB's records for doi:10.1021/jm00072a019 (J. Uriach & Cía., 1993).

This experiment is described as follows: In vitro inhibition of PAF-induced platelet aggregation in male rabbits.

On to `Cc1ncccc1C(C#N)N1CCN(C(=O)CC(O)(c2ccccc2)c2cccnc2)CC1` (stereo unspecified) [[4-(3-Hydroxy-3-phenyl-3-pyridin-3-yl-propionyl)-piperazin-1-yl]-(2-methyl-pyridin-3-yl)-acetonitrile], for which the IC50 stood at 32 nM.
The figure for `Cc1ncccc1C(C#N)N1CCN(C(=O)CC(C)(O)c2ccccc2)CC1` (stereo unspecified) [[4-(3-Hydroxy-3-phenyl-butyryl)-piperazin-1-yl]-(2-methyl-pyridin-3-yl)-acetonitrile] is 36 nM; for `Cc1ncccc1C(C#N)N1CCN(C(=O)C[S+]([O-])C(c2ccccc2)c2ccccc2)CC1` (stereo unspecified) [{4-[2-(Diphenyl-methanesulfinyl)-acetyl]-piperazin-1-yl}-(2-methyl-pyridin-3-yl)-acetonitrile] it is 44 nM; for `Cc1ncccc1C(C#N)N1CCN(C(=O)CS(=O)(=O)C(c2ccccc2)c2ccccc2)CC1` (stereo unspecified) [{4-[2-(Diphenyl-methanesulfonyl)-acetyl]-piperazin-1-yl}-(2-methyl-pyridin-3-yl)-acetonitrile] it is 26 nM.
With `Cc1ncccc1C(C#N)N1CCN(C(=O)CC(O)(c2ccc(F)cc2)c2ccc(F)cc2)CC1` (stereo unspecified) [{4-[3,3-Bis-(4-fluoro-phenyl)-3-hydroxy-propionyl]-piperazin-1-yl}-(2-methyl-pyridin-3-yl)-acetonitrile], the midpoint of inhibition, the IC50, lay at 75 nM.
The same measure for `Cc1ncccc1C(C#N)N1CCN(C(=O)CC(c2ccccc2)N2CCCS2(=O)=O)CC1` (stereo unspecified) [{4-[3-(1,1-Dioxo-1lambda*6*-isothiazolidin-2-yl)-3-phenyl-propionyl]-piperazin-1-yl}-(2-methyl-pyridin-3-yl)-acetonitrile]: 170 nM.
